Reference: patent publication US20170258756A1, “A Method for Topically Treating Actinic Keratosis on the Scalp with Ingenol 3-(3,5-diethylisoxazole-4-carboxylate)” (LEO Laboratories Limited, priority 2014, published 2017)

Key:
[1] = tested on: actinic keratosis on the scalp; assay: Part 1 dose escalation trial, gel once daily for two consecutive days on the scalp (LSR / DLT); type: in vivo, human
Source text: Local skin reactions (LSRs) occurs sometimes in the treated area. Often LSRs are quantified by a scale evaluating the following types of skin reactions: erythema, flaking/scaling, crusting, swelling, vasiculation/postulation, and erosion/ulceration which are categorized into categories 0-4 depending on the severity of the reactions.
Dose Limiting toxicity (DLT) is defined as the following LSR: […]
Erosion/ulceration grade 4.
Or other clinically relevant signs or symptoms observed, which the Investigator judges to be counted as a DLT. Maximum tolerated dose (MTD) is declared as dose level at which less than 4 subjects out of experience a DLT of cohort of 12 subjects.
Part 1 was a dose escalation study conducted with a once daily application of trial medication for two consecutive days and continued until the MTD was identified.
Dose escalation proceeded if the safety and tolerability data of the subject up to day 8 was reviewed and considered satisfactory. The treatment consisted of once daily treatment for 2 consecutive days. Up to 5 different doses may be investigated in cohorts of […]. The number of subjects in each cohort depended on the number of observed DLTs. However, the MTD was always be confirmed in a cohort of 12 subjects. […] Dose escalation was stopped at the 0.075% dose level as the investigators in this study felt that the application site adverse events, although manageable, could pose a problem for some patients. […] Part 2 is a study of the efficacy of the 0.037% dose identified in part 1 in a three day regimen.
Part 1: Trial medication, ingenol 3-(3,5-diethylisoxazole-4-carboxylate) gel, will be applied to the treatment area once daily for two consecutive days until the maximum tolerated dose has been reached for each formulation. Up to five different doses of active compound in gel may be investigated in cohorts 12 subjects.
Predefined grades of Local Skin Responses (LSRs) will constitute dose limiting toxicity (DLT). The maximum tolerated dose is defined as the highest dose level at which less than 4 out of12 subjects experience a Dose limiting toxicity.
The doses will be administered in an escalating manner following review of safety and tolerability data performed by the dose escalation committee. Evaluation of the safety and tolerability data will be performed after Visit 5/day 8. Then subjects will be followed for 8 weeks after first application of investigational product.

dermal tumours = assay: in vivo studies in mice, effects on dermal tumours; settings: compared with ingenol mebutate
Source text: The exact mechanism of action of ingenol 3-(3,5-diethylisoxazole-4-carboxylate) continues to be investigated, but it is believed that ingenol 3-(3,5-diethylisoxazole-4-carboxylate) has a dual mechanism of action inducing cell death as well as stimulation of immune response.

[2] = tested on: actinic keratosis on the scalp; assay: Part 2 open label trial, 0.037% gel once daily for three consecutive days on the scalp; type: in vivo, human
Source text: The outcome for Part 2 is safety and efficacy in a once daily application for three consecutive days on the scalp. The efficacy in treating of the AK will be measured as reduction in AK count in the treated area of lesions which are not considered hyperkeratotic/hypertrophic.
In parallel the efficacy in treating of the AK will be measured as reduction in AK count in the treated area of lesions which are considered hyperkeratotic/hypertrophic.
The reduction in AK count will be performed at week 4 and 8 no matter the type of lesion. Also complete clearance of AKs in the treated area which are not considered hyperkeratotic/hypertrophic at week 8 will be measured.
To qualify for part 2 of the trial, the subjects must have 5-20 clinically visible and discrete AKs within 250 cm^2 area on the balding scalp (The balding part of the scalp should be greater than 25 cm^2 and up to approximately 250 cm^2). In addition to the requirement of 5-20 clinically typical, visible and discrete AKs within the selected treatment area, subjects may also have visible and discrete hyperkeratotic/hypertrophic lesions in this area. The subjects will be treated with a dose of 0.037% as a once daily three consecutive days treatment and followed for 8 weeks.
The trial consists of an initial part, where 18 subjects will be treated on the scalp. […] As this is a safety trial, it is considered justified to conduct this clinical trial as an open-label, uncontrolled trial. An early safety and tolerability evaluation will be performed following the 3 days treatment. If safety and tolerability is found acceptable by the Early Data Review Committee, and additional 44 subjects will be enrolled in order to expand safety observations and obtain an estimate of treatment efficacy.
The patients are scheduled for 7 visits: • Visit 1: within 21 days prior to day 1 • Visit 2: day 1 (application of trial medication) • Visit 3: […] (application of trial medication) • Visit 4: day 8 (+2 day) • Visit 5: week 2 (±2 day) • Visit 6: week 4 (±4 day) • Visit 7: week 8 (±7 day)
LSRs are evaluated at all visits following visit 1. AK lesion counts are performed on Visit 2, 6 and 7.
At Baseline (Day 1) and Visit 7 (Week 8), the investigator will make a clinical (visual and tactile) assessment of the extent of photo-damage in the treatment area with respect to 1) fine wrinkling, 2) coarse wrinkling, 3) mottled pigmentation, 4) roughness, 5) sallowness, 6) skin laxity, and 7) telangiectasia. Severity for each of these characteristics will be on a 5-point scale: None (0), Mild (1), Moderate (2), Severe (3), Extreme (4).
At Visit 7 (Week 8) the Investigator will make an overall clinical (visual and tactile) assessment of the subject's photo-damage change from baseline in the treatment area (including an integrated assessment of fine wrinkling, coarse wrinkling, mottled pigmentation, roughness, sallowness, skin laxity, and telangiectasia based on the subject's appearance at the baseline visit).
At Visit 7 (Week 8), the subjects will complete a self-assessment questionnaire evaluating the change in the 1) overall appearance of the skin and 2) overall feel of the skin after treatment. The scoring will be on a 5-point scale: Much worsened, Somewhat worsened, No change, somewhat improved, much improved.
The secondary response criteria will be analysed for the full analysis set and for the per protocol analysis set. The ratio of number of AK lesions at week 8 relative to baseline, excluding lesions identified at base line as hyperkeratotic/hypertrophic lesions, will be tabulated by treatment group. Separately for each treatment group, the rate and corresponding 95% confidence interval will be estimated from a negative binomial regression on the AK count at week 8 with the log baseline value as an offset variable. The same analysis will be performed for the subgroup of lesions identified as hyperkeratotic/hypertrophic at baseline. […]

SMILES: CCc1noc(CC)c1C(=O)O[C@H]1C(C)=C[C@]23C(=O)[C@@H](C=C(CO)[C@@H](O)[C@]12O)[C@H]1[C@@H](C[C@H]3C)C1(C)C [ingenol 3-(3,5-diethylisoxazole-4-carboxylate)]
- tolerability of selected dose with respect to LSRs and application site reaction ([1]; 0.037%, two days dosing regimen): well tolerated
- subjects meeting dose limiting toxicity (DLT) criteria ([1]; two day regimen, dose escalation up to 0.075%): no subjects met the predefined criteria for DLT
- dose level at which dose escalation was stopped ([1]; two day regimen, stopped because of application site adverse events, manageable): 0.075%
- tolerability of 0.037% and 0.05% doses ([1]; two day treatment, compared with 0.075%): clearly better tolerated
- efficacy in eliminating dermal tumours (dermal tumours): more efficacious than ingenol mebutate
- reduction in AK count ([2]; once daily three consecutive days, scalp, 62 patients, week 8): 79%
- complete clearance ([2]; once daily three consecutive days, scalp, week 8): 40%
- improvement in appearance and feel reported by subjects ([2]; three day regimen, cosmetic outcome self-assessment, % of subjects): more than 90%
- photo damage improved, share of patients ([2]; three day regimen, investigator assessment): two-thirds
- time at which side-effects maximize ([2]; three day regimen, rapid decline thereafter): 4 days
- side-effects ([2]; three day regimen, scalp): considered acceptable
